Active and inactive are the calls of the source. The calls are words filed in the database; no cut-off is given here.
How the values were obtained:
Histone deacetylase 5 = Histone deacetylase 5 (Homo sapiens, UniProt Q9UQL6); assay: Inhibition of recombinant human HDAC5 using acetylated luminogenic substrate incubated for 10 mins by ultra-glo recombinant firefly luciferase based luminescence assay
[1] = Toxicity in athymic nude BALB/c mouse xenografted with human NCI-H1975 cells assessed as effect on BUN level at 6 mg/kg, ip administered 5 times a week for 3 weeks and measured on day 22; type: organism-based; conditions: in vivo, 528 h, time 22 day
[2] = Downregulation of HDAC1 protein expression in human NCI-H1975 cells assessed as fold change at 0.1 uM incubated for 24 hrs by immunoblotting analysis (reference value: 1); type: functional
[3] = Downregulation of HDAC11 protein expression in human MDA-MB-231 cells assessed as fold change at 0.1 uM incubated for 24 hrs by immunoblotting analysis (reference value: 1); type: functional
[4] = Effect on HDAC2 protein expression in human MDA-MB-231 cells assessed as fold change at 0.05 uM incubated for 24 hrs by immunoblotting analysis (reference value: 1); type: functional
[5] = Downregulation of HDAC10 protein expression in human MDA-MB-231 cells assessed as fold change at 0.05 uM incubated for 24 hrs by immunoblotting analysis (reference value: 1); type: functional
[6] = Downregulation of HDAC7 protein expression in human MDA-MB-231 cells assessed as fold change at 0.1 uM incubated for 24 hrs by immunoblotting analysis (reference value: 1); type: functional
[7] = Upregulation of acetylated H3 protein expression in human MDA-MB-231 cells assessed as fold change at 0.05 uM incubated for 24 hrs by immunoblotting analysis (reference value: 1); type: functional
MDA-MB-231 = assay: Cytotoxicity against human MDA-MB-231 cells assessed as inhibition of cell growth incubated for 48 hrs by Celltiter-glo assay; type: functional, cell-based; conditions: MDA-MB-231, 48 h
[8] = Toxicity in athymic nude BALB/c mouse xenografted with human MDA-MB-231 cells assessed as effect on creatinine level in serum at 3 mg/kg, ip administered 5 times a week for 7 weeks; type: organism-based; conditions: in vivo, 1176 h
[9] = Upregulation of acetylated H4 protein expression in human NCI-H1975 cells assessed as fold change at 0.05 uM incubated for 24 hrs by immunoblotting analysis (reference value: 1); type: functional
[10] = Toxicity in athymic nude BALB/c mouse xenografted with human NCI-H1975 cells assessed as effect on ALT level at 6 mg/kg, ip administered 5 times a week for 3 weeks and measured on day 22; type: organism-based; conditions: in vivo, 528 h, time 22 day
Histone deacetylase 4 = Histone deacetylase 4 (Homo sapiens, UniProt P56524); assay: Inhibition of recombinant human HDAC4 using acetylated luminogenic substrate incubated for 10 mins by ultra-glo recombinant firefly luciferase based luminescence assay
[11] = Downregulation of HDAC6 protein expression in human MDA-MB-231 cells assessed as fold change at 0.05 uM incubated for 24 hrs by immunoblotting analysis (reference value: 1); type: functional
Histone deacetylase 1 = Histone deacetylase 1 (Homo sapiens, UniProt Q13547); assay: Inhibition of recombinant human HDAC1 using acetylated luminogenic substrate incubated for 10 mins by ultra-glo recombinant firefly luciferase based luminescence assay
Histone deacetylase = assay: Inhibition of HDAC in human HeLa cells nuclear extract; type: subcellular, Nucleus
[12] = Effect on HDAC4 protein expression in human MDA-MB-231 cells assessed as fold change at 0.05 uM incubated for 24 hrs by immunoblotting analysis (reference value: 1); type: functional
[13] = Effect on HDAC4 protein expression in human NCI-H1975 cells assessed as fold change at 0.05 uM incubated for 24 hrs by immunoblotting analysis (reference value: 1); type: functional
[14] = Effect on HDAC4 protein expression in human MDA-MB-231 cells assessed as fold change at 0.1 uM incubated for 24 hrs by immunoblotting analysis (reference value: 1); type: functional
NCI-H1975 [15] = assay: Antitumor activity against human NCI-H1975 cells xenografted in athymic nude BALB/c mouse assessed as cell apoptosis in tumor region at 6 mg/kg, ip administered 5 times a week for 3 weeks and measured on day 22 by TUNEL assay; type: functional, organism-based; conditions: time 22.0 day
NCI-H1975 [16] = assay: cells; type: functional, cell-based; conditions: Homo sapiens, NCI-H1975, 48 h
Description: Cytotoxicity against human NCI-H1975 cells assessed as inhibition of cell growth incubated for 48 hrs by Celltiter-glo assay

[17] = Upregulation of acetylated H3 protein expression in human MDA-MB-231 cells assessed as fold change at 0.1 uM incubated for 24 hrs by immunoblotting analysis (reference value: 1); type: functional

Chain of Histone deacetylase 1 (Q13547 whole entry): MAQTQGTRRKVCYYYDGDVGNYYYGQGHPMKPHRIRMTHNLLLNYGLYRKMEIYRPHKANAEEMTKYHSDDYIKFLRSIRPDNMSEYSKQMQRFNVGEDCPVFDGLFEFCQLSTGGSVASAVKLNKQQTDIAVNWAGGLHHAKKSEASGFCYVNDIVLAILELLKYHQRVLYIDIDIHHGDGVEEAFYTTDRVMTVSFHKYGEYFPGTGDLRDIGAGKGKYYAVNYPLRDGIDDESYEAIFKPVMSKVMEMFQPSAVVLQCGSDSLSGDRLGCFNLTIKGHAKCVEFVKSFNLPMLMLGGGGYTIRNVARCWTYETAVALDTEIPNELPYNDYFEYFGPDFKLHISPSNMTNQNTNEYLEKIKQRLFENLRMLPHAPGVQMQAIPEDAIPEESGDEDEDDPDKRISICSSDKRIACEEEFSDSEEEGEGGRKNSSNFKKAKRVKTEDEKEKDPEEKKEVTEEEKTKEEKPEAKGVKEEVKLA
Chain of Histone deacetylase 4 (P56524 whole entry): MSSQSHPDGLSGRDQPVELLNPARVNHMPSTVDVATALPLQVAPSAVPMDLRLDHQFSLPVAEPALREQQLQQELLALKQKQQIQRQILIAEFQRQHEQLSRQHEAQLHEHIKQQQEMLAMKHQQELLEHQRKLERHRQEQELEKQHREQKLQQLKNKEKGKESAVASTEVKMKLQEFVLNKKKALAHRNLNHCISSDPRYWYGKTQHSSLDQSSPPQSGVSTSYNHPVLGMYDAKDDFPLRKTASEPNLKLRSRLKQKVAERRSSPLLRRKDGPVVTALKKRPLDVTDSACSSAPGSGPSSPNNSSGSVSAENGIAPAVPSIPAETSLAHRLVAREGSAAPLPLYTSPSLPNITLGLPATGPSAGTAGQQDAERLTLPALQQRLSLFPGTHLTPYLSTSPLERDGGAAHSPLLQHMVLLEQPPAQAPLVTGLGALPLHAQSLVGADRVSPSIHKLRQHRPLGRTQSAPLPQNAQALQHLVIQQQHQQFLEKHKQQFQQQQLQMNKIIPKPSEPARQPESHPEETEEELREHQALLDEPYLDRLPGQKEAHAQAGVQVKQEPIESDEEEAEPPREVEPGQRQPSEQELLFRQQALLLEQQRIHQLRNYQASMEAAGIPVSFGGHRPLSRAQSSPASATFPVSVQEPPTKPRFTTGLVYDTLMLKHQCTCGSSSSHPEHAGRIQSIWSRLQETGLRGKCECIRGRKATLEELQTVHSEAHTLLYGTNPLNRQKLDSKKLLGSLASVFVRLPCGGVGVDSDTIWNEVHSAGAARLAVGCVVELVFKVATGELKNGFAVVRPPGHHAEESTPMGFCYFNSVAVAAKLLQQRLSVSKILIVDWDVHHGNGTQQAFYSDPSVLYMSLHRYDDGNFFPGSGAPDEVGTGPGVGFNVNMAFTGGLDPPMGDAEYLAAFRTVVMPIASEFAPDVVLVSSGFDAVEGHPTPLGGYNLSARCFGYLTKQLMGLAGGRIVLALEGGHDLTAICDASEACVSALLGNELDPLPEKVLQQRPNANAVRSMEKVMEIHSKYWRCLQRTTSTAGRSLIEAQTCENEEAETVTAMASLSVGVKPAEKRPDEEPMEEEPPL
Chain of Histone deacetylase 5 (Q9UQL6 whole entry): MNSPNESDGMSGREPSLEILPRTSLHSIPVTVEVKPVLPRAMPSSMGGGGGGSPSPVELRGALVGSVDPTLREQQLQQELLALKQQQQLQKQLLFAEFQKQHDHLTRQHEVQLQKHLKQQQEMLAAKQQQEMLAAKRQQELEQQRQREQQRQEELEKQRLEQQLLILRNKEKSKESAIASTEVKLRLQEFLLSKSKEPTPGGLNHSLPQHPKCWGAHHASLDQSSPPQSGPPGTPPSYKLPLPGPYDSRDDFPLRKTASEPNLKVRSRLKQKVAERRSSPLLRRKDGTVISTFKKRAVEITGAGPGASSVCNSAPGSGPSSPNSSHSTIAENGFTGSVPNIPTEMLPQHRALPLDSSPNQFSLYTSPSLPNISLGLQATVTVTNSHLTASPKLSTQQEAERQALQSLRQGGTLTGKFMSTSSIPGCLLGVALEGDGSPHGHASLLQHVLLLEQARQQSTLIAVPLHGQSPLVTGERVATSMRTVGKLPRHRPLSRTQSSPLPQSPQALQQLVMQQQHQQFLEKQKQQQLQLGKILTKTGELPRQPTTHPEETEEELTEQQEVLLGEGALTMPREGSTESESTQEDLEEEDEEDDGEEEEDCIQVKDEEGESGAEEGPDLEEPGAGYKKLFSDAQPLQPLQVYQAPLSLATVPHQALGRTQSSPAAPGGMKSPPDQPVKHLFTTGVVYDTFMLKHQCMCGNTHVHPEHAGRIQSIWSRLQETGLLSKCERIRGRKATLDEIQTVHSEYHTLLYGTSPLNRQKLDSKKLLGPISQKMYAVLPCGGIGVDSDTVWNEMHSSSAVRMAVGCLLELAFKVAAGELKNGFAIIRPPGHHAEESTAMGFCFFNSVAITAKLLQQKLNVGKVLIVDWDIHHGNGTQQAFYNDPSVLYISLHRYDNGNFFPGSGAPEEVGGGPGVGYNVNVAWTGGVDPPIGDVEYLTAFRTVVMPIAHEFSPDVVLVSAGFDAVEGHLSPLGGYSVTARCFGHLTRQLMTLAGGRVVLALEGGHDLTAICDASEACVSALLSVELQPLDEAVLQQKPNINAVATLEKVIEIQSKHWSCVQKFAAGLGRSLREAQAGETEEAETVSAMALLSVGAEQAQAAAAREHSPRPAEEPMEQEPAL

In the case of CCOc1ccc(-c2nc(C(=O)NCc3ccc(C(=O)NO)cc3)c3[nH]c(=O)n(-c4cccnc4OC)c3n2)cn1, the IC50 (Histone deacetylase 5) is reported as greater than 1000 nM, the Activity [1] is reported as “Non-Toxic” and the “fold change (FC)” value [2] is reported as 0.95. The “fold change (FC)” value [3] was 0.2, the “fold change (FC)” value [4] was 1.18 and the “fold change (FC)” value [5] was 0.89. For the same compound, the “fold change (FC)” value [6] was 0.58, the “fold change (FC)” value [7] was 1.29 and the IC50 (MDA-MB-231) was 510 nM. For the same compound, the Activity [8] was “Non-Toxic”, the “fold change (FC)” value [9] was 1.7 and the Activity [10] was “Non-Toxic”. For the same compound, the IC50 (Histone deacetylase 4) was greater than 1000 nM, the “fold change (FC)” value [11] was 0.47 and the IC50 (Histone deacetylase 1) was 5.1 nM. The IC50 (Histone deacetylase) was 0.04 µM, the “fold change (FC)” value [12] was 1.15 and the “fold change (FC)” value [13] was 1.33. The “fold change (FC)” value [14] was 1.01, the Activity (NCI-H1975 [15]) was “Active” and the IC50 (NCI-H1975 [16]) was 1200 nM. The “fold change (FC)” value [17] was 1.35.
